Target: T1, Apelin receptor (Homo sapiens, UniProt P35414)
T1 sequence (P35414 whole entry): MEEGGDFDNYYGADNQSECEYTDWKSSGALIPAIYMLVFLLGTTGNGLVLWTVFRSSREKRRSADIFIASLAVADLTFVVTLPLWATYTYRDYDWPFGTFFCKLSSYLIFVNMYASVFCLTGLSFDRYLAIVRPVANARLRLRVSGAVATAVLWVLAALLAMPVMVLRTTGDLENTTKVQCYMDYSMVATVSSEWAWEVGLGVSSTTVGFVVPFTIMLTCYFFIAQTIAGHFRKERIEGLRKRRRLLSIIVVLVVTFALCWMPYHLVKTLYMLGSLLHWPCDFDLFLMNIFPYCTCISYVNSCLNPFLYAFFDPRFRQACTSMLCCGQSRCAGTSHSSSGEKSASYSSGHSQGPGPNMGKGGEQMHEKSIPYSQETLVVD
Assay: Intracellular cAMP Accumulation Assay
Procedure: HEK293 cells stably expressing human APJ receptor were used to assess the activity of compounds. Cultured cells were detached and resuspended in the cAMP Homogeneous Time-Resolved Fluorescence (HTRF) assay buffer (Cisbio cat; #62AM4PEJ). […] Serial dilutions of a compound together with assay buffer containing […] and 2 μM forskolin were added to each well containing 5,000 cells and incubated for 30 minutes at room temperature. Subsequently, cAMP D2 reagent was added in the lysis buffer followed by the EuK antibody (Cisbio; cat #62AM4PEJ) and incubated for 60 min. The fluorescence emission ratio was measured using fluorometer. The intracellular cAMP concentrations (compound-stimulated inhibition of forskolin-mediated cAMP production) were calculated by extrapolation from a standard curve using known cAMP concentrations. The EC50 values were obtained by fitting the data to a sigmoidal concentration-response curve with variable slope.

CCCCC1NC(=O)C(S(=O)(=O)c2ccc(-c3ccnc(F)c3C)cc2)=C(O)N1[C@@H](CC)c1cccc(OC)c1 (stereo partly specified) [US10508104, Example 169]
EC50: in the range around 5 nM

— BindingDB's records for patent US10508104 (Bristol Myers Squibb, 2019)
